The structures appear in SMILES notation.

Assay [1] deals with human GABAA α1β2γ1 receptor (Homo sapiens (Human), UniProt P14867+Q8N1C3). Nature of the assay: Radioligand binding assay for γ1-containing GABAA subtypes, [3H]RO7239181 competition (α1β2γ1). How it is done:
The affinity of compounds at GABAA γ1 subunit-containing receptors was measured by competition for [^3H]RO7239181 (67.3 Ci/mmol; Roche) binding to membranes from HEK293F cells (ThermoFisher R79007) expressing human (transiently transfected) receptors of composition α5β2γ1, α2β2γ1, α1β2γ1.
Harvested pellets from HEK293F cells expressing the different GABAA receptor subtypes were resuspended in Mannitol Buffer pH 7.2-7.4 (Mannitol 0.29 M, Triethylamine 10 mM, Acetic acid 10 mM, EDTA 1 mM plus protease inhibitors (20 tablets Complete, Roche Diagnostics Cat. No. 05 056 489 001 per liter)), washed two times and then resuspended at 1:10 to 1:15 dilution in the same buffer. Cell disruption was performed by stirring the suspension in a Parr vessel #4637 at 435 psi for 15 minutes, and then the suspensions were centrifuged at 1000×g for 15 minutes at 4° C. (Beckman Avanti J-HC; rotor JS-4.2). The supernatant (S1) was transferred in a 2 l Schott flask and the pellet (P1) was resuspended with Mannitol Buffer up to 175 ml. The resuspended pellet was transferred into a 250 ml Corning centrifugal beaker and centrifuged at 1500×g for 10 minutes at 4° C. (Beckman Avanti J-HC; rotor JS-4.2). The supernatant (S1) was then transferred in the 2 l Schott flask and the pellet was discarded. The supernatants (S1) were centrifuged in 500 ml Beckman polypropylene centrifugal beaker at 15′000×g for 30 minutes at 4° C. (Beckman Avanti J-20 XP; rotor JLA-10.500). The pellet (P2) was resuspended with Mannitol Buffer 1:1 and frozen at −80° C. The supernatant (S2) was centrifuged in 100 ml Beckman polypropylene centrifugal tubes at 48000×g for 50 minutes at 4° C. (Beckman Avanti J-20 XP; rotor JA-18). The supernatant (S3) was discarded and the pellet (P3) was resuspended with 1:1 Mannitol Buffer. The P2 and P3 protein concentration was determined with the BIORAD Standard assay method with bovine serum albumin as standard and measured on the NANO-Drop 1000. The membrane suspension was aliquots (500 μl per tube) and stored at −80° C. until required.
Membrane homogenates were resuspended and polytronised (Polytron PT1200E Kinematica AG) in Potassium Phosphate 10 mM, KCl 100 mM binding buffer at pH 7.4 to a final assay concentration determined with a previous experiment.
Assays were incubated to equilibrium for 1 hour at 4° C. and then, membranes were filtered onto unifilter (96-well white microplate with bonded GF/C filters preincubated 20-50 minutes in 0.3% Polyethylenimine) with a Filtermate 196 harvester (Packard BioScience) and washed 4 times with cold Potassium Phosphate 10 mM pH 7.4, KCl 100 mM binding buffer. After anhydrousing, filter-retained radioactivity was detected by liquid scintillation counting. Ki values were calculated using Excel-Fit (Microsoft) and are the means of two determinations.

Assay [2] deals with α2β2γ1 GABAA receptor subtype (Homo sapiens (Human), UniProt P47869+Q8N1C3). Nature of the assay: Two-electrode voltage clamp electrophysiology in Xenopus oocytes expressing GABAA receptors (modulation of GABA EC20 current). Particulars: for Efficacy (GABA)%: % modulation of GABA EC20 = 100*(Fold increase-1), α2β2γ1 oocytes, compound at approx. 30-fold Ki; for Fold increase h-GABA-A α2β2γ1 oocyte @ 30-fold Ki: Xenopus oocytes expressing α2β2γ1, compound at approx. 30-fold its Ki α2β2γ1, GABA EC20 current. The format is cell-based. In short, it runs like this:
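Two-electrode voltage clamp at −80 mV, room temperature, 3-5 days after mRNA injection into oocytes. GABA applied at EC20 for 1.5 min, twice, with compound during second application; at least 3 oocytes per concentration. Efficacy = extremum of point-by-point current ratio, expressed as 100×(fold increase−1).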
On the technique in general: In two-electrode clamp one electrode senses voltage and the other passes current.

Assay [3] deals with human GABAA α2β2γ1 receptor (Homo sapiens (Human), UniProt P47869+Q8N1C3). Nature of the assay: Radioligand binding assay for γ1-containing GABAA subtypes, [3H]RO7239181 competition (α2β2γ1).
The target of assay [4] is human GABAA α1β3γ2 receptor (Homo sapiens (Human), UniProt P14867+P18507). Nature of the assay: Radioligand binding assay for γ2-containing GABAA subtypes, [3H]Flumazenil competition (α1β3γ2). Particulars: for γ2/γ1 Selectivity Ratio: Ki α1β3γ2 (nM)/Ki α2β2γ1 (nM); for LogSel: Log[Ki α1β3γ2 (nM)/Ki α2β2γ1 (nM)].
Assay [5] has as its target human GABAA α5β2γ1 receptor (Homo sapiens (Human), UniProt P31644+Q8N1C3). The experiment in a line: Radioligand binding assay for γ1-containing GABAA subtypes, [3H]RO7239181 competition (α5β2γ1).
The mark [6] stands for this setting: Ki h-GABAA α2β2γ1, [3H]RO7239181 competition binding, human GABAA α2β2γ1.
Where [7] appears, read: Ki h-GABAA α2β2γ1, displacement of [3H]RO7239181, membranes of HEK293F cells expressing human receptors, means of two determinations.

Broadly, the Ki is a measure of affinity in units of concentration, obtained from inhibition or displacement. `COC1CN(C(=O)c2nc3n(n2)-c2ccc(C(F)(F)F)c(Cl)c2C(c2ncccc2F)=N[C@H]3C)C1` [Example 103, [(4S)-7-chloro-6-(3-fluoro-2-pyridyl)-4-methyl-8-(trifluoromethyl)-4H-[1,2,4]triazolo[1,5-a][1,4]benzodiazepin-2-yl]-(3-methoxyazetidin-1-yl)methanone]: the Ki in assay [1] is 178 nM; in assay [3] (setting [6]), 25.4 nM; in assay [3] (setting [7]), 25.3 nM; in assay [4], more than 30000 nM; in assay [5] it was 9.87 nM. In addition, in assay [2], the “Efficacy (GABA)%” value amounted to 113%. In assay [2], the “Fold increase h-GABA-A α2β2γ1 oocyte @ 30-fold Ki” value was found to be 2.13. For the same compound, the “γ2/γ1 Selectivity Ratio” value in assay [4] was 1183.4. The LogSel in assay [4] is 3.07.

For the compound `C[C@@H]1N=C(c2c(F)cccc2F)c2c(ccc(C(F)(F)F)c2Cl)-n2nc(C(=O)NCCF)nc21` [Example 106, (4S)-7-chloro-6-(2,6-difluorophenyl)-N-(2-fluoroethyl)-4-methyl-8-(trifluoromethyl)-4H-[1,2,4]triazolo[1,5-a][1,4]benzodiazepine-2-carboxamide], the Ki in assay [1] stood at 104 nM; in assay [3] (setting [6]), 22.6 nM; in assay [3] (setting [7]) it was 22.6 nM; in assay [4], 4190 nM; in assay [5], 2.94 nM. In assay [2], the “Efficacy (GABA)%” value was determined as 90%. Further, in assay [2], the “Fold increase h-GABA-A α2β2γ1 oocyte @ 30-fold Ki” value is 1.90. For the same compound, the “γ2/γ1 Selectivity Ratio” value in assay [4] turned out to be 185.1. Also, in assay [4], the LogSel amounted to 2.27.

Regarding `C[C@@H]1N=C(c2c(F)cccc2F)c2c(ccc(C(F)(F)F)c2Cl)-n2nc(C(=O)NCCO)nc21` [Example 107, (4S)-7-chloro-6-(2,6-difluorophenyl)-N-(2-hydroxyethyl)-4-methyl-8-(trifluoromethyl)-4H-[1,2,4]triazolo[1,5-a][1,4]benzodiazepine-2-carboxamide], the Ki in assay [1] was found to be 65.1 nM; in assay [3] (setting [6]) it was 14 nM; in assay [3] (setting [7]) it was 11.6 nM; in assay [4] it was 3700 nM; in assay [5], 2.5 nM. The “Efficacy (GABA)%” value in assay [2] stood at 103%. Further, the “Fold increase h-GABA-A α2β2γ1 oocyte @ 30-fold Ki” value in assay [2] was 2.03. For the same compound, the “γ2/γ1 Selectivity Ratio” value in assay [4] is recorded as 319.1. In assay [4], this compound returned a LogSel of 2.50.

Regarding `C[C@H](O)CNC(=O)c1nc2n(n1)-c1ccc(C(F)(F)F)c(Cl)c1C(c1c(F)cccc1F)=N[C@H]2C` [Example 109, (4S)-7-chloro-6-(2,6-difluorophenyl)-N-[(2S)-2-hydroxypropyl]-4-methyl-8-(trifluoromethyl)-4H-[1,2,4]triazolo[1,5-a][1,4]benzodiazepine-2-carboxamide], the inhibitory constant (Ki) in assay [1] was 40.8 nM; in assay [3] (setting [6]), 12.1 nM; in assay [3] (setting [7]), 12.1 nM; in assay [4], 3120 nM; in assay [5], 3.07 nM. Further, the “Efficacy (GABA)%” value in assay [2] is recorded as 126%. Further, the “Fold increase h-GABA-A α2β2γ1 oocyte @ 30-fold Ki” value in assay [2] worked out at 2.26. Moreover, the “γ2/γ1 Selectivity Ratio” value in assay [4] is on record as 258.7. For the same compound, the LogSel in assay [4] stood at 2.41.

Turning to `C[C@@H]1N=C(c2c(F)cccc2F)c2c(ccc(C(F)(F)F)c2Cl)-n2nc(C(=O)N3CCS(=O)(=O)CC3)nc21` [Example 114, [(4S)-7-chloro-6-(2,6-difluorophenyl)-4-methyl-8-(trifluoromethyl)-4H-[1,2,4]triazolo[1,5-a][1,4]benzodiazepin-2-yl]-(1,1-dioxo-1,4-thiazinan-4-yl)methanone], the inhibition constant (Ki) was 23.2 nM in assay [1]; 9.5 nM in assay [3] (setting [6]); 9.5 nM in assay [3] (setting [7]); 3090 nM in assay [4]; 3.73 nM in assay [5]. Moreover, the “Efficacy (GABA)%” value in assay [2] is 88%. In assay [2], the “Fold increase h-GABA-A α2β2γ1 oocyte @ 30-fold Ki” value is 1.88. Besides, the “γ2/γ1 Selectivity Ratio” value in assay [4] came to 325.5. Also, in assay [4], the LogSel is recorded as 2.51.

Turning to `C[C@@H]1N=C(c2c(F)cccc2F)c2c(ccc(C(F)(F)F)c2Cl)-n2nc(C(=O)NN(C)C)nc21` [Example 117, (4S)-7-chloro-6-(2,6-difluorophenyl)-N′,N′,4-trimethyl-8-(trifluromethyl)-4H-[1,2,4]triazolo[1,5-a][1,4]benzodiazepine-2-carbohydrazide], the inhibition constant (Ki) is 99.2 nM in assay [1]; 20 nM in assay [3] (setting [6]); 20 nM in assay [3] (setting [7]); 5510 nM in assay [4]; 3.14 nM in assay [5]. Also, in assay [2], the “Efficacy (GABA)%” value is listed as 92%. In addition, the “Fold increase h-GABA-A α2β2γ1 oocyte @ 30-fold Ki” value in assay [2] was 1.92. Also, the “γ2/γ1 Selectivity Ratio” value in assay [4] came to 276.4. Also, the LogSel in assay [4] came to 2.44.

On to `C[C@@H]1N=C(c2c(F)cccc2F)c2c(ccc(C(F)(F)F)c2Cl)-n2nc(N3CCOC3=O)nc21` [Example 121, 3-[(4S)-7-chloro-6-(2,6-difluorophenyl)-4-methyl-8-(trifluoromethyl)-4H-[1,2,4]triazolo[1,5-a][1,4]benzodiazepin-2-yl]oxazolidin-2-one], for which the Ki is 39.1 nM in assay [1]; 5.5 nM in assay [3] (setting [6]); 5.5 nM in assay [3] (setting [7]); 1210 nM in assay [4]; 1.43 nM in assay [5]. For the same compound, in assay [2], the “Efficacy (GABA)%” value was 52%. In addition, in assay [2], the “Fold increase h-GABA-A α2β2γ1 oocyte @ 30-fold Ki” value was 1.52. For the same compound, the “γ2/γ1 Selectivity Ratio” value in assay [4] is reported as 218.2. For the same compound, the LogSel in assay [4] amounted to 2.34.

On to `CNC(=O)Nc1nc2n(n1)-c1ccc(C(F)(F)F)c(Cl)c1C(c1c(F)cccc1F)=N[C@H]2C` [Example 129, 1-[(4S)-7-chloro-6-(2,6-difluorophenyl)-4-methyl-8-(trifluoromethyl)-4H-[1,2,4]triazolo[1,5-a][1,4]benzodiazepin-2-yl]-3-methyl-urea], for which the Ki was determined as 49.9 nM in assay [1]; 6 nM in assay [3] (setting [6]); 6 nM in assay [3] (setting [7]); 3350 nM in assay [4]; 1.58 nM in assay [5]. Further, in assay [2], the “Efficacy (GABA)%” value is listed as 36%. Also, the “Fold increase h-GABA-A α2β2γ1 oocyte @ 30-fold Ki” value in assay [2] is 1.36. Besides, the “γ2/γ1 Selectivity Ratio” value in assay [4] was 558.0. In assay [4], this compound had a LogSel of 2.75.

For the compound `CCOC1CN(C(=O)c2nc3n(n2)-c2ccc(C(F)(F)F)c(Cl)c2C(c2ncccc2F)=N[C@H]3C)C1` [Example 137, [(4S)-7-chloro-6-(3-fluoro-2-pyridyl)-4-methyl-8-(trifluoromethyl)-4H-[1,2,4]triazolo[1,5-a][1,4]benzodiazepin-2-yl]-(3-ethoxyazetidin-1-yl)methanone], the inhibition constant (Ki) in assay [1] stood at 130 nM; in assay [3] (setting [6]), 42.6 nM; in assay [3] (setting [7]), 42.6 nM; in assay [4], 10500 nM; in assay [5] it was 6.58 nM. The “Efficacy (GABA)%” value in assay [2] was 129%. Also, in assay [2], the “Fold increase h-GABA-A α2β2γ1 oocyte @ 30-fold Ki” value is 2.29. In assay [4], the “γ2/γ1 Selectivity Ratio” value amounted to 246.0. For the same compound, in assay [4], the LogSel is 2.39.

The record behind these values is US12365687B2 (Hoffmann-La Roche Inc., priority 2021, dated 2025).
